Measured values from patent US7850970B2, “Inhibitors of serine protease activity and their use in methods and compositions for treatment of bacterial infections” (priority 2003, dated 2010).
Several values for one entry are separate records, joined by “and”; a condition that tells them apart may be missing. Equal entries are not always repeated. Residues, ends and D or L forms follow the SMILES beside them. *: point of attachment. CH2Cl = ClC*

What was measured:
interleukin-1 beta = test: Stimulated interleukin-1 beta production in whole human blood; assay type: cell-based; details: whole human blood diluted 1:4, heat-killed Staphylococcus epidermidis 1:1000, 24 hrs, all concentrations tested, FIG. 5
Procedure: Design: Venipuncture was performed on 3 healthy volunteers using a 21-gauge needle, and the venous blood was aspirated into a heparinized tube. Blood was then aliquoted into 6 milliliter polypropylene tubes and diluted 1:4 with sterile RPMI tissue culture medium alone (Control), diluted 1:4 in medium containing heat-killed Staphylococcus epidermidis at a final concentration of 1:1000 as a stimulus (Staph), or into tubes containing Staphylococcus epidermidis and alpha-1-antitrypsin (AAT, Aralast® from Baxter). All cultures were then incubated ×24 hrs at 37° C./5% CO2). Following incubation, the samples were centrifuged ×1,500 g, and the supernatants collected. Supernatants were assayed for interleukin-1 beta concentration using a validated electrochemiluminescence apparatus that quantifies cytokine proteins.

TB (strain H37RV) [1] = assay type: cell-based, m. tuberculosis; details: AAT 5.0 mg/ml-exposed MDM; control MDM (no AAT) 20% and 17%
TB (strain H37RV) [2] = assay type: cell-based, m. tuberculosis
[3] = tested on: MAC (strain Mycobacterium avium 9141); test: MAC infection of human monocyte-derived macrophages, colony counts; assay type: cell-based; details: FIG. 1
[4] = tested on: MAC (strain Mycobacterium avium 9141); test: MAC infection of human monocyte-derived macrophages, direct observation and counting of infected cells; assay type: cell-based; details: AAT 5.0 mg/ml-exposed MDM, control MDM (no AAT) 17%

| Compound | Staph-stimulated interleukin-1 beta production (interleukin-1 beta) | percent of cells infected with m. tuberculosis (TB (strain H37RV) [1]) | TB counts per ml (TB (strain H37RV) [2]; AAT-exposed MDM cultures, control MDM cultures 1.6×10^5 per ml) | inhibitory effect on cell-associated TB counts (TB (strain H37RV) [2]; AAT-exposed versus control MDM cultures) | inhibition of infection of MDM with MAC (mean effect) ([3]; 4 separate experiments) | percent of cells infected [4] | effect on MAC infection of MDM [3] |
| --- | --- | --- | --- | --- | --- | --- | --- |
| α1-antitrypsin [AAT] | significantly inhibited | 4% and 6% | 0.57×10^5 per ml | 64% | approximately 55% | 10% | – |
| CC(C)[C@H](NC(=O)[C@@H]1CCCN1C(=O)[C@H](C)NC(=O)[C@H](C)N)C(=O)CCl [AAT mimic, ala-ala-pro-val-chloromethyl ketone, reference compound] (H-AAPV-CH2Cl) | – | – | – | – | – | – | confirm the AAT data |
